According to ChEMBL document CHEMBL1201862, “PubChem BioAssay data set” (2004):
Active and inactive are the calls of the source.

Key:
[1] = Trypanosoma cruzi growth suppression in host cells – NIH3T3 host cells, beta-gal luminescence, confirmation (AID 2044); type: functional, cell-based;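 further: intracellular parasites grown in NIH/3T3 mouse fibroblasts as host cells; luminescent beta-galactosidase reporter signal from transgenic T. cruzi replicating inside host cells; inhibitors lower the luminescence signal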
[2] = NIH3T3 cell viability loss – ATP luminescence, mouse fibroblasts, counter-screen, dose response (AID 2010); type: functional, cell-based;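 further: cells exposed to compound for about 90 hours before reading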
[3] = blockers of HIV-1 ZM109 envelope-driven cell-cell fusion – HeLa effector, CEM target cells, luciferase, cherry-pick, dose response (AID 652058); type: functional, cell-based;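 further: luciferase signal from HIV-1 Env mediated cell-cell fusion of effector and target cells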
[4] = blockers of HIV-1 envelope-mediated cell-cell fusion – cherry-pick, dose response (AID 652057); type: functional, cell-based
Estrogen receptor = biological target: T1, Estrogen receptor (Homo sapiens, UniProt P03372);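 further: potency for inhibiting coactivator peptide recruitment to the receptor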
T1 sequence (P03372 whole entry): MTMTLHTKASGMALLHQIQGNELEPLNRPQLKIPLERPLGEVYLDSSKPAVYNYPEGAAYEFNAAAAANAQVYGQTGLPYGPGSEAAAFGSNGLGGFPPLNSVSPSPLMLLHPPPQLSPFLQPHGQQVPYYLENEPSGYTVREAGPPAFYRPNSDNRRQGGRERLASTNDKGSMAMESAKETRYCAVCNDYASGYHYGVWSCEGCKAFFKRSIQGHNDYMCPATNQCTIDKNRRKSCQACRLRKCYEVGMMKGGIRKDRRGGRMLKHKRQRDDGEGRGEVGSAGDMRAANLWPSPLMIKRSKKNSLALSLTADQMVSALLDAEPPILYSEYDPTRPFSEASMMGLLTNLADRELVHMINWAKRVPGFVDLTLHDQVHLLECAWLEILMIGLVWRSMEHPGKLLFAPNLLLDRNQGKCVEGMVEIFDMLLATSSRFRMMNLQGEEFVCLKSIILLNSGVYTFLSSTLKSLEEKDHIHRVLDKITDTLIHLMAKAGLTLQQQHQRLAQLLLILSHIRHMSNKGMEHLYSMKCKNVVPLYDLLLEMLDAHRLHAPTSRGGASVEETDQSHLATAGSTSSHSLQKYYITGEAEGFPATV

[5] = viability loss in CEM21 cells – cell-based, plate reader, dry powder, cytotoxicity control, dose response (AID 687026); type: functional
[6] = T. cruzi growth inhibition in host cells, dose response, cell-based, plate reader, dry powder, set 2 (AID 652275); type: functional
[7] = biological target: Eukaryotic translation initiation factor 4E (Mus musculus, UniProt P63073); experiment: blockers of eIF4G binding by eIF4E – biochemical, TR-FRET, dose response (AID 855); type: functional;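 further: potency for disrupting eIF4E binding to eIF4GI seen as loss of FRET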
[8] = reduced cellular PGC1a acetyl-lysine signal – cell-based, cherry-picked samples, dose response (AID 720514); type: functional;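 further: potency may reflect raised or lowered acetylation signal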
HeLa = experiment: viability loss in HeLa cells – cell-based, ATP luminescence, cherry-pick samples, cytotoxicity control, dose response (AID 687004); type: functional; conditions: Homo sapiens
[9] = viability loss in CEM21 cells – cell-based, CellTiter-Glo luminescence, cherry-picked, cytotoxicity control for viral fusion inhibitor project, dose response (AID 652042); type: functional;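 further: potency for signal decrease meaning cytotoxicity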
[10] = loss of viability in HepG2 cells – cell-based, CellTiter-Glo, cherry-picked, cytotoxicity control for Shn3 inhibitor project, dose response (AID 624134); type: functional
Caspase-8 = Caspase-8 (Homo sapiens, UniProt Q14790); experiment: inhibitors of purified CASP8 protease – biochemical, Z-IETD-R110 fluorescence, cherry-picked samples, selectivity assay for caspase-6 inhibitor project, dose response (AID 743294)
Caspase-6 = biological target: T2, Caspase-6 (Homo sapiens, UniProt P55212); experiment: inhibition of CASP6 peptide cleavage – biochemical, VEID-R110 fluorescence, cherry-pick, dose response (AID 720632)
T2 sequence (P55212 whole entry): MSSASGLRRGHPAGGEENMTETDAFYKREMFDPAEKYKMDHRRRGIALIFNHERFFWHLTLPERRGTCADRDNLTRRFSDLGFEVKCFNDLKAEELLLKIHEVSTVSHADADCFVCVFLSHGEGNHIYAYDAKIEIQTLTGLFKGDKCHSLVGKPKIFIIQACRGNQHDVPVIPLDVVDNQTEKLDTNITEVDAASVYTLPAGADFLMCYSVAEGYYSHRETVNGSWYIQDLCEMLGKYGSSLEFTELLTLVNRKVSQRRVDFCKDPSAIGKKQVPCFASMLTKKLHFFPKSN

[11] = HIV-1 AD8 envelope cell-cell fusion blockers – cherry-pick, dose response (AID 652062); type: functional, cell-based;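 further: luciferase signal from cell-cell fusion driven by HIV-1 clade B AD8 Env; potency is for inhibitors of fusion seen as a drop in luminescence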
Caspase-7 = Caspase-7 (Homo sapiens, UniProt P55210); experiment: caspase-7 enzyme inhibition, selectivity check – biochemical, DEVD-R110 fluorescence, cherry-pick, selectivity assay for caspase-6 inhibitor project, dose response (AID 743295); type: functional
[12] = reduction of Shn3 3'UTR-driven luciferase in osteoblasts – cell-based, Clone20 osteoblasts, firefly luciferase, cherry-picked, dose response (AID 624132); type: functional;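 further: firefly luciferase luminescence from reporter carrying the Shn3 3'UTR in osteoblasts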
[13] = off-target signal loss in HeLa-CEM21 co-culture – HeLa F-luc CTL cells, cherry-picked, counter-screen for HIV-1 Env fusion inhibitor project, dose response (AID 652040); type: functional, cell-based;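 further: potency for signal decrease marking cytotoxic or nonspecific inhibition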
[14] = non-specific 3'UTR reporter inhibition in Clone20-Shn3RL – cell-based, Renilla luciferase, cherry-picked, counter-screen for Shn3 inhibitor project, dose response (AID 624133); type: functional
[15] = biological target: T3, Disintegrin and metalloproteinase domain-containing protein 17 (Homo sapiens, UniProt P78536); experiment: exosite inhibitors of ADAM17, dose response, biochemical (AID 743260)
[16] = potency of ADAM10 substrate cleavage blockers – biochemical, QFRET, dose response (AID 743254);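 further: ADAM10 enzyme with the DM2 quenched FRET peptide as substrate; EDANS fluorescence gain as the protease cuts the substrate; inhibitor potency against ADAM10 proteolytic activity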
[17] = biological target: T4, Kappa-type opioid receptor (Homo sapiens, UniProt P41145); type: functional
[18] = biological target: T3, Disintegrin and metalloproteinase domain-containing protein 17; experiment: inhibition of ADAM17 substrate cleavage – biochemical, quenched FRET substrate, counter-screen for ADAM10 exosite inhibitor project, dose response (AID 743253)
[19] = biological target: T4, Kappa-type opioid receptor; type: functional; remark: listed apart in the source
Beta-galactosidase = Beta-galactosidase (Escherichia coli, UniProt Q8VNN2); type: functional
[20] = OVCAR8 cell viability loss – plate reader, dry powder samples, PAX8 project, dose response (AID 743197); type: functional, cell-based; conditions: OVCAR-8
[21] = A2780 cell killing – plate reader, dry powder samples, cytotoxicity control, dose response (AID 743046); type: functional, cell-based
Protein Wnt-3a = Protein Wnt-3a (Mus musculus, UniProt P27467); experiment: SAR analysis of small molecule antagonists of Gli-SUFU in a Wnt3a luminescent reporter assay.; type: functional
[22] = human cervical cancer cell viability loss – 24 h, plate reader, dry powder, cytotoxicity control, dose response (AID 686928); type: functional, cell-based; conditions: HeLa

T4 sequence (P41145 whole entry, the tested form may be a part): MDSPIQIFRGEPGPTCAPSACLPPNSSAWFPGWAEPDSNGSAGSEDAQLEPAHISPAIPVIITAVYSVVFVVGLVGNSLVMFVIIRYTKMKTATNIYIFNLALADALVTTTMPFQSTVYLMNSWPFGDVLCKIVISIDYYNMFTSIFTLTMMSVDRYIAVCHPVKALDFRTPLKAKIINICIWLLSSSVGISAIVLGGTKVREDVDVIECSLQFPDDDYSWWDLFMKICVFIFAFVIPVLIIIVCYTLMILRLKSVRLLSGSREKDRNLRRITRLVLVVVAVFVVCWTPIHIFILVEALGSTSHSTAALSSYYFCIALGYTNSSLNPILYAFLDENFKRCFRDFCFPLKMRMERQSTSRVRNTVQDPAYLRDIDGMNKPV
T3 sequence (P78536 whole entry, the tested form may be a part): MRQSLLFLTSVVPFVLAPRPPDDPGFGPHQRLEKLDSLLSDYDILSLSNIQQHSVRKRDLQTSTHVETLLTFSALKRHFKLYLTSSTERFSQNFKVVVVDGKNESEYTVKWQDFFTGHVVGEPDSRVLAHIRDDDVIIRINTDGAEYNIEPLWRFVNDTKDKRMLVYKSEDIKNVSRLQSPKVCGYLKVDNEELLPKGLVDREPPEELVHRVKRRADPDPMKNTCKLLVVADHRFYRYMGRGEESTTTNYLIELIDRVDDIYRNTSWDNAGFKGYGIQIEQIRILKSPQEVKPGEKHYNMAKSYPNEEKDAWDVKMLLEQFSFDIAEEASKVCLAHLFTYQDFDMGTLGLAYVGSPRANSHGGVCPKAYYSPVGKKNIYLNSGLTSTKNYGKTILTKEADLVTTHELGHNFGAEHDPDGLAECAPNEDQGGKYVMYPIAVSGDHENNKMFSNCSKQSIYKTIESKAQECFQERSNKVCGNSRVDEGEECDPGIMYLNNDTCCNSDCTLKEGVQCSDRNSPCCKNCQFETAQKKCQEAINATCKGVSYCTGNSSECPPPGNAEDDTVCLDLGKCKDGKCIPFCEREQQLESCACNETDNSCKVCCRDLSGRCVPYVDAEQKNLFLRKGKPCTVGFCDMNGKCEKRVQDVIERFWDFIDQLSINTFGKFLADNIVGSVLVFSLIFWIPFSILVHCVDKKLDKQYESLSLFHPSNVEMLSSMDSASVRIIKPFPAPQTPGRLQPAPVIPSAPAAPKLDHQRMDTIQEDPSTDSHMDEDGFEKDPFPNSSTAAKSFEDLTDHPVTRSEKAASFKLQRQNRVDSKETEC
Chain of Eukaryotic translation initiation factor 4E (P63073 whole entry): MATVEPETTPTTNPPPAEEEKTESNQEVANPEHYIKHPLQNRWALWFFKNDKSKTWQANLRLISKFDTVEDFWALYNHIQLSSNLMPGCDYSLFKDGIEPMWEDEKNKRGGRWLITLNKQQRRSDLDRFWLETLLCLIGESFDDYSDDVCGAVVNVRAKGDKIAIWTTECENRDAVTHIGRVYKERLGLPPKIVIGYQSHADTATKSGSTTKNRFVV
Chain of Caspase-8 (Q14790 217-374 limits assumed): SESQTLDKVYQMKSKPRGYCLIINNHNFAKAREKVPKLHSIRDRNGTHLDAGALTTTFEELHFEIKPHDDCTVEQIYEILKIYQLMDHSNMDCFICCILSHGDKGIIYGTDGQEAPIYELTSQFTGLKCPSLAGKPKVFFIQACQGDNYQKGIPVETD
Chain of Caspase-8 (Q14790 385-479 limits assumed): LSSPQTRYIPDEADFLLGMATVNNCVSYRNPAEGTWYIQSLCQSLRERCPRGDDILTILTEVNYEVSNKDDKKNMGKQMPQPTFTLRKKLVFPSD
Chain of Protein Wnt-3a (P27467 whole entry): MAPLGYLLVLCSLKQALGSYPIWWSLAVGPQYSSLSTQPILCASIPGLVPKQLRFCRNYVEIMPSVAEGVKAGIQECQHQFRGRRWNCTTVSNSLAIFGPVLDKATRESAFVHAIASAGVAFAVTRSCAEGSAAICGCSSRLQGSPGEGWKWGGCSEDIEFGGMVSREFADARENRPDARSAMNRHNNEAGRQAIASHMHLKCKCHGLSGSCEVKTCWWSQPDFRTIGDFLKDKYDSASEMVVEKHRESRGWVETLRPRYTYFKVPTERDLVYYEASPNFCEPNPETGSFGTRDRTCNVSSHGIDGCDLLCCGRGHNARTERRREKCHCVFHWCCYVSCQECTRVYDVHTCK
Chain of Caspase-7 (P55210 24-198 limits assumed): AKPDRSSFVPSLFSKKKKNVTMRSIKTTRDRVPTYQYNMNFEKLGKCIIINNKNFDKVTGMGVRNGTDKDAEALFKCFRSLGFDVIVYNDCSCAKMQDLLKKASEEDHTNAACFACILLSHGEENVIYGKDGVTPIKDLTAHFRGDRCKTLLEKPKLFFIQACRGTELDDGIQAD
Chain of Caspase-7 (P55210 207-303 limits assumed): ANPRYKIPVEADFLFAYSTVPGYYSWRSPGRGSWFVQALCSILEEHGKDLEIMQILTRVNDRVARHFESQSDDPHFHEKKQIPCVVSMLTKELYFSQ
Chain of Beta-galactosidase (Q8VNN2 whole entry): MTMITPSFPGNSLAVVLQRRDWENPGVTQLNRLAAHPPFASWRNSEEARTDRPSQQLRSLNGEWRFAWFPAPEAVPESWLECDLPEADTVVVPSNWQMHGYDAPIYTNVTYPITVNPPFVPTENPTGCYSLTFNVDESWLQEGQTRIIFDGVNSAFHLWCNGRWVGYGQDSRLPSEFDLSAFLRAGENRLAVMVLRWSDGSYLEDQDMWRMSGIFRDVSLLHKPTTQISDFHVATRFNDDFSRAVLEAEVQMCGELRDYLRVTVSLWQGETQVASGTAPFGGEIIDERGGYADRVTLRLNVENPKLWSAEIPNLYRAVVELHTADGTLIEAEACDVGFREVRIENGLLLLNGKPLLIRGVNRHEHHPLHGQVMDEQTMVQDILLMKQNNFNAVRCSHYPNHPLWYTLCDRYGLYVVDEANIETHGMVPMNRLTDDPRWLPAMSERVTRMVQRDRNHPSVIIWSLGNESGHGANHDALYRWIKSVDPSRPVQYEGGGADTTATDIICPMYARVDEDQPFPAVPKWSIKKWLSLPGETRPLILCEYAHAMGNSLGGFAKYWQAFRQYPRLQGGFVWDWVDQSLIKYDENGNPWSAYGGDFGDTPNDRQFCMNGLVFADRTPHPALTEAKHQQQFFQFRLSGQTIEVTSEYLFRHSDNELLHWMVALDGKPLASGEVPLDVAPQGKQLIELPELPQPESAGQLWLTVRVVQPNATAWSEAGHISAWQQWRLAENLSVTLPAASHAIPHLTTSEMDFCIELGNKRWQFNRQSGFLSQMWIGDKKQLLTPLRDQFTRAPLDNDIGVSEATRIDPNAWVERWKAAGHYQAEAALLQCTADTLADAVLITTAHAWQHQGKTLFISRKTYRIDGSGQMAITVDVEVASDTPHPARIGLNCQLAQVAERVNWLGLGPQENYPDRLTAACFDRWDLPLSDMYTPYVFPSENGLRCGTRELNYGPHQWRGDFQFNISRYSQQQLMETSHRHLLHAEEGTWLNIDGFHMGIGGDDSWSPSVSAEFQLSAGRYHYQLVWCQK

With `COc1ccc(-c2nn(C)c(=O)c3ccccc23)cc1NC(=O)Cn1nc(C)c2ccccc2c1=O` as the compound, how does the EC50 [1] read?
Its EC50 is 1.46 µM (active).

What about the EC50 [2] of the same compound?
Its EC50 is > 60 µM (not active).

And the AC50 [3]?
The AC50 was 6.21 µM (active).

And the AC50 [4]?
The AC50 was 4.07 µM (active).

And the IC50 (Estrogen receptor)?
Its IC50 is > 50 µM (not active).

And the AC50 [5]?
The AC50 was > 70 µM (inactive).

With `CC(C)N1C[C@@H](CN(C)CCc2ccc(Cl)cc2)Oc2c(NC(=O)c3ccncc3)cccc2C1=O` as the compound, how does the AC50 [6] read?
The AC50 was 0.000332 µM (active).

Which results are given for `COCCSc1ccccc1C(=O)Nc1cc(C)on1`?
IC50 [7]: > 64 µM (inactive); AC50 [8]: 1.06 µM (active)

Which AC50 (HeLa) does the source give for `COC(=O)C1=C(C)N(Cc2ccc(F)cc2)C(=S)NC1c1ccc(Cl)cc1` (stereo not given) here?
The AC50 was > 52 µM (inactive).

What does the source list for `Nc1cc2c(cc1Br)nc(O)c1ccccc12`?
AC50 [9]: 9.39 µM (active); AC50 [10]: 45.8 µM (active); AC50 (Caspase-8): 5.26 µM (active); AC50 [4]: 3.76 µM (active); AC50 (Caspase-6): 3.87 µM (active); AC50 [11]: 21.6 µM (active); AC50 (Caspase-7): 2.6 µM (active); AC50 [12]: 5.46 µM (active); AC50 [13]: 22.9 µM (active); AC50 [14]: 22.9 µM (active)

Which IC50 [15] does the source give for `COCC/N=c1\scc(-c2cc(OC)ccc2OC)n1/N=C/c1c[nH]c2ccccc12` here?
The IC50 was > 69.5 µM (inactive).

What about the IC50 [16] of the same compound?
Its IC50 is > 69.5 µM (inactive).

And the IC50 [17]?
Its IC50 is 9.65 µM (active).

And the IC50 [18]?
Its IC50 is > 69.5 µM (inactive).

What about the IC50 [19] of the same compound?
Its IC50 is 3.86 µM.

What about the EC50 (Beta-galactosidase) of the same compound?
Its EC50 is > 31.5 µM (inactive).

Which results are given for `C[C@H]1CN([C@@H](C)CO)C(=O)c2cccc(NC(=O)Nc3ccc(C(F)(F)F)cc3)c2O[C@H]1CN(C)C(=O)NC1CCCCC1`?
AC50 [20]: > 70 µM (inactive); AC50 [21]: 11.9 µM (active)

Which IC50 (Protein Wnt-3a) does the source give for `O=C(Nc1cc(N2CCCCC2)ncn1)c1cc2ccccc2s1` here?
Its IC50 is > 21.8 µM (inactive).

With `Cc1cc2nc3c(cc2cc1F)c(NC(=O)c1ccco1)nn3C` as the compound, how does the AC50 [22] read?
Its AC50 is > 200 µM (inactive).
